Peptide text beside a SMILES is read from it. * marks the point of attachment. Cbz = O=C(OCc1ccccc1)*
Tests used:
[1] = test system: HdhQ111 / HdhQ7 mouse striatal cells; experiment: VCP mitochondrial level, mouse striatal cells (western blot); type: cell-based; conditions: HdhQ111 cells, Htt siRNA, 3 days
Procedure: (§1) Immortalized striatal cell lines HdhQ111 mutant and HdhQ7 wt cells were obtained from the CHDI Foundation. Cells were cultured in DMEM supplemented with 10% FBS, 100 μg/ml penicillin, 100 μg ml^−1 streptomycin, and 400 μg ml^−1 G418. Cells were grown at 33 °C in a 5% CO2 incubator. Cells within 14 passages were used in all experiments.
(§2) For silencing Htt and VCP in HD striatal cells, control siRNA, mouse Htt and mouse VCP siRNA were purchased from Thermo Fisher Scientific. HdhQ7 and HdhQ111 cells were transfected either with control siRNA, or Htt or VCP siRNA using TransIT-TKO Transfection Reagent (Mirus Bio, LLC), according to the manufacturer's instructions. The sequences for the siRNAs used in this study are as follows: mouse Htt, 5′-[…]-3′; Mouse VCP, 5′-GAGAGCAACCUUCGUAAG-3′; control non-targeting siRNA, 5′-TTCTCCGAACGTGTCACGT-3′.
(§3) Cells were washed with cold PBS and incubated on ice for 30 min in a lysis buffer (250 mM sucrose, 20 mM HEPES-NaOH, pH 7.5, 10 mM KCl, 1.5 mM MgCl2, 1 mM EDTA, protease inhibitor cocktail and phosphatase inhibitor cocktail). Mouse brains were minced and homogenized in the lysis buffer and then placed on ice for 30 min. Collected cells or tissue were disrupted 20 times by repeated aspiration through a 25-gauge needle, followed by a 30-gauge needle. The homogenates were spun at 800 g for 10 min at 4 °C, and the resulting supernatants were spun at 10,000 g for 20 min at 4 °C. The pellets were washed with lysis buffer and spun at 10,000 g again for 20 min at 4 °C. The final pellets were suspended in lysis buffer containing 1% Triton X-100 and were mitochondrial-rich lysate fractions. The supernatant was centrifuged at 100,000 g, 4 °C, for 1 h, the pellets were suspended in lysis buffer containing 1% Triton X-100 as ER fractions. The final supernatant was cytosolic fractions. The mitochondrial proteins VDAC, the ER protein WFS1 and the cytosolic protein Enolase were used as loading controls for mitochondrial, ER and cytosolic fractions, respectively.
(§4) Protein concentrations were determined by Bradford assay. […]

VCP = conditions: cited from earlier work
Text: We next ask what specific function VCP mediates on mitochondria from HD models. VCP knock-out is lethal in mice[34].

[2] = test system: HdhQ111 / HdhQ7 mouse striatal cells; experiment: Mitochondrial membrane potential (TMRM), mouse striatal cells; type: cell-based; conditions: HdhQ111 cells, VCP siRNA, three days
Procedure: as §1, §2
To determine mitochondrial mass in cultures, cells were stained with antibodies against Tom20 or stained with Mitotracker green. The fluorescent density of Tom20 (1:500) or mitotracker green was quantitated using NIH Image J software. To measure the membrane potential of mitochondria in cultures, cells were incubated with 0.25 μM tetra-methyl rhodamine (Invitrogen Life Science) for 20 min at 37 °C. To determine lysosomal activity, cells were incubated with Lyso-ID Red dye (Enzo Life Science) for 30 min at 37 °C. The images were visualized by microscope and quantitation of the density of red fluorescence was carried out using NIH ImageJ software. For immunocytochemistry study, at least 100 cells per group were counted and quantitated by an observer blind to experimental conditions.

[3] = test system: HdhQ111 mouse striatal cells; experiment: Mitochondria-associated LC3 II level; type: cell-based; conditions: VCP siRNA, 48 h
Text: as §2
as §3, with “The supernatant was centrifuged at 100,000 g, 4 °C, for 1 h, the pellets were suspended in lysis buffer containing 1% Triton X-100 as ER fractions. The final supernatant was cytosolic fractions. The mitochondrial proteins VDAC, the ER protein WFS1 and the cytosolic protein Enolase were used as loading controls for mitochondrial, ER and cytosolic fractions, respectively.” left out
as §4

[4] = test system: Htt or mtHtt protein in HdhQ7 and HdhQ111 cells; experiment: Htt/mtHtt protein level (western blot); type: cell-based, mouse; conditions: 16 h, n = 3
Procedure: Protein concentrations were determined by Bradford assay. Protein was resuspended in Laemmli buffer, loaded on SDS–PAGE, and transferred onto nitrocellulose membranes. Membranes were probed with the indicated antibodies, followed by visualization with ECL. Representative blots have been cropped for presentation. Images of full-size blots are presented in Supplementary Fig. 9.
Supplementary Figure 3: Htt and mtHtt are not substrates of VCP . Left: HdhQ7 and HdhQ111 cells were treated with MG132 (10 µM for 16 hours). Protein levels of Htt were determined in the total lysates of the cells. Actin was used as a loading control. The representative blots were from three independent experiments. Right: HdhQ7 and HdhQ111 were treated with Eer I (Eeyarestatin I, 5μ M for 16 hours). Protein levels of Htt were determined. Mcl-1, a mitochondrial Bcl-2 family protein, was used as a positive control. Mcl-1 has been reported to be a substrate of VCP on mitochondria and it is degraded via the ubiquitin-proteasome system. The representative blots were from three independent […]
(1 picture or pasted object on this page, not shown here)

## 5′-GGUUUAUGAACUGACUUUGTT-3′ [Htt siRNA, reference compound]
[1]
  VCP translocation to mitochondria: abolished VCP translocation to mitochondria

## c1ccc(CNc2nc(NCc3ccccc3)c3ccccc3n2)cc1 [N2,N4-dibenzylquinazoline-2,4-diamine]
VCP
  cell death: rapidly lead to cell death
  specificity: non-specific

## 5′-GAGAGCAACCUUCGUAAG-3′ [VCP siRNA, reference compound]
[2]
  mitochondrial membrane potential: similarly promoted the MMP
[3]
  mitochondria-associated LC3 II: reduced the levels of mitochondria-associated LC3 II

## CC(C)C[C@@H](C=O)NC(=O)[C@H](CC(C)C)NC(=O)[C@H](CC(C)C)NC(=O)OCc1ccccc1 [MG132] (Cbz-Leu-Leu-Leu-aldehyde)
[4]; MG132 10 µM
  Htt or mtHtt protein levels: did not affect Htt or mtHtt protein levels

## CC1(C)C(N(O)C(=O)Nc2ccc(Cl)cc2)N(c2ccc(Cl)cc2)C(=O)N1CC(=O)N/N=C/C=C/c1ccc([N+](=O)[O-])o1 (stereo not drawn) [Eeyarestatin I]
[4]; Eeyarestatin I 5 μM
  Htt or mtHtt protein levels: did not affect Htt or mtHtt protein levels
VCP
  cell death: rapidly lead to cell death
  specificity: non-specific

Source: article PMC5007466, “VCP recruitment to mitochondria causes mitophagy impairment and neurodegeneration in models of Huntington's disease” (Nature Communications, 2016)
